The source of these data is patent EP2340832A1, “Morphinan-6-one compounds for the treatment or prevention of neurodegenerative diseases” (Universität Innsbruck, priority 2009, dated 2011).

In one assay the target is T1, δ receptor (Rattus norvegicus, UniProt P33533).
T1 construct: Membrane fractions were prepared from Sprague-Dawley rat or guinea pig brains; from tissue; host or cells: Sprague-Dawley rat brain (without cerebella) membranes
In words: [35S]GTPγS functional assay, rat brain membranes, δ receptor. The class given is biochemical, Sprague-Dawley rat. Here is the method:
(§1) Membrane fractions were prepared from Sprague-Dawley rat or guinea pig brains as described above. To determine binding of [^35S]GTPyS, rat or guinea pig brain membranes (10 µg of protein) were incubated for 60 min at 30 °C in Tris-EGTA buffer (50 mM Tris-HCl buffer, 3 mM MgCl2, 1 mM EGTA, […], pH 7.4) containing 30 µM GDP, 0.05 nM [^35S]GTPyS and appropriate concentrations of the respective compounds according to the present invention in a final volume of 1 ml. The reaction was terminated by vacuum filtration through Whatman GF/B glass fibre filters. Filters were washed three times with ice-cold 50 mM Tris-HCI buffer (pH 7.4) and the bound radioactivity was measured by liquid scintillation counting (Beckman Coulter™ LS6500). Basal activity was determined by subtracting the non-specific binding (measured in the presence of 100 µM unlabelled GTPyS) from the total binding (measured in the absence of the compound).
(§2) Stimulation produced by the compound is given as percentage of the basal activity (given as 100%). Functional data, EC50 (nM; half maximal effective concentration) and maximal stimulation Emax (% stimulation over basal level; maximal effective concentration), were calculated by using nonlinear regression analysis and sigmoidal curve fitting GraphPad Prism (San Diego, CA, USA) program. The values are expressed as the mean ± S.E.M of at least 3 independent experiments, each performed in triplicate. Statistical analysis was carried out using SPSS software (SPSS Inc., Chicago, lL, USA) and the Student T-test was used to compare different assay conditions. A ρ value < 0.05 was considered statistically significant.
(In general: Binding of GTPγS marks nucleotide exchange on a G protein.)

In another assay the target is T2, K receptor (Cavia porcellus, UniProt P41144).
T2 construct: Membrane fractions were prepared from Sprague-Dawley rat or guinea pig brains; from tissue; host or cells: guinea pig brain (without cerebella) membranes
T2 sequence (P41144 whole entry): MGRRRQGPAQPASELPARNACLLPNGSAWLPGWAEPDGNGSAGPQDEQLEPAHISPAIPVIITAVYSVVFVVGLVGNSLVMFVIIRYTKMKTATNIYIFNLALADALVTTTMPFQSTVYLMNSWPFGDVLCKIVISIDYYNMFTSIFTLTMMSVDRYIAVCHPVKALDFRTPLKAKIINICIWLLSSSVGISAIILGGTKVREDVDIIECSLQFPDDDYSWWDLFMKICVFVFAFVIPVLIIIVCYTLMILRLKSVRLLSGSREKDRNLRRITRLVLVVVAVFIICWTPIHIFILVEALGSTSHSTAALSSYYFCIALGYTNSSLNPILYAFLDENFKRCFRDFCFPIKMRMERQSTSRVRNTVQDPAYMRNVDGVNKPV
The assay is classed as biochemical, guinea pig.

The next assay has as its target µ opioid receptor (Rattus norvegicus, UniProt P33535). In words: [35S]GTPγS functional assay, rat brain membranes, µ receptor. More on the design: Membrane fractions were prepared from Sprague-Dawley rat or guinea pig brains; from tissue; host or cells: Sprague-Dawley rat brain (without cerebella) membranes. The assay is classed as biochemical, Sprague-Dawley rat. The method, then: as §1, §2

µ opioid receptor, sequence (P33535 whole entry): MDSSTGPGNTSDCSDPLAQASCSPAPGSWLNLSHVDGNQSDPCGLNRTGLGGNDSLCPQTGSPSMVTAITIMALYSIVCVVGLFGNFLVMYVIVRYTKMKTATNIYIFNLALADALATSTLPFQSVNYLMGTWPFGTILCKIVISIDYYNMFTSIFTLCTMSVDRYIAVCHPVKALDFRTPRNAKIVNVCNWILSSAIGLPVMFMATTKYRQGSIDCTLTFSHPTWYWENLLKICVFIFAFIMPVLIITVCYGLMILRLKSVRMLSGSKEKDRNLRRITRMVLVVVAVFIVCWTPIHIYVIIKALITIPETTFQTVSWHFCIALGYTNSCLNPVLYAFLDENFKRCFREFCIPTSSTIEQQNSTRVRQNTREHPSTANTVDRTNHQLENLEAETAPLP
T1 sequence (P33533 whole entry): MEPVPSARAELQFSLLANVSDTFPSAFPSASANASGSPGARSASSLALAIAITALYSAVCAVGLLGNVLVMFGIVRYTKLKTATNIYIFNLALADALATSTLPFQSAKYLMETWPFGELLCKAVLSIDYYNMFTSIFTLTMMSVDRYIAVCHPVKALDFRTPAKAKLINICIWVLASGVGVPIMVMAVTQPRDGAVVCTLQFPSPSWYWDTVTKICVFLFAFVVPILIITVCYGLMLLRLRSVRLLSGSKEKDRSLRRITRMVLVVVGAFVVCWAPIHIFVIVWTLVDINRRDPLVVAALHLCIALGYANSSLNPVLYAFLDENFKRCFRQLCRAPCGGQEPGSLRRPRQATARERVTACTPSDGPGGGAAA

Take `C=CCN1CC[C@]23CC(=O)CC[C@H]2[C@H]1Cc1cccc(OC)c13` [Compound 4, 4-methoxy-N-allylmorphinan-6-one]: on δ receptor (10 µM each), the “[35S]GTPγS binding on co-incubation with naltrindole versus antagonist alone” value is reported as “did not produce any significant increase”. Also, on δ receptor (compound 10 µM, SNC 80 10 µM), the “effect on [35S]GTPγS binding stimulated by SNC 80” value is “did not cause any significant changes”. On K receptor, the “[35S]GTPγS binding in the presence of the compound alone” value is recorded as “no increase”; the “[35S]GTPγS binding on co-incubation with Nor-BNI versus antagonist alone” value is given as “did not produce any significant increase”; the “effect on [35S]GTPγS binding stimulated by U69,593” value is on record as “slight, but significant decrease”. Further, on µ opioid receptor, the “function at the µ opioid receptor” value is “antagonistic function”. Further, the “[35S]GTPγS binding on co-incubation with cyprodime versus antagonist alone” value at µ opioid receptor (10 µM each, rat brain membranes) is reported as “did not produce any significant increase”. The “effect on [35S]GTPγS binding stimulated by DAMGO” value at µ opioid receptor (compound 10 µM, DAMGO 10 µM, rat brain membranes) was “significantly decreased”. In addition, the “[35S]GTPγS binding in the presence of the compound alone” value on µ opioid receptor (rat brain membranes, compared with DAMGO) is listed as “no increase”.
